# Experimental data reported in ChEMBL document CHEMBL5154828 (J Med Chem, 2022).
# The source made the active and inactive calls. No cut-off for these calls is given here.
# How the values were obtained:
# [1] = Cmax in Sprague-Dawley rat at 10 mg/kg, po measured up to 24 hrs by LC/MS/MS analysis; assay type: ADME, organism-based; design: time < 24 hrs, dose 10 mg/kg, route po; conditions: in vivo
# Estrogen receptor [2] = molecular target: Estrogen receptor (Homo sapiens, UniProt P03372, D538G); assay: Antagonist activity at ERalpha D538G mutant degradation in human SK-BR-3 cells incubated for 24 hrs in presence of beta-estradiol by luciferase gene assay; assay type: cell-based
# Estrogen receptor [3] = molecular target: Estrogen receptor (Homo sapiens, UniProt P03372, Y537S); assay: Antagonist activity at ERalpha Y537S mutant degradation in human SK-BR-3 cells incubated for 24 hrs in presence of beta-estradiol by luciferase gene assay; assay type: cell-based
# Estrogen receptor [4] = molecular target: T1, Estrogen receptor (Homo sapiens, UniProt P03372); assay: Induction of ERalpha degradation in human MCF7 cells incubated for 24 hrs by Western blot analysis; assay type: cell-based
# T1 sequence (P03372 whole entry): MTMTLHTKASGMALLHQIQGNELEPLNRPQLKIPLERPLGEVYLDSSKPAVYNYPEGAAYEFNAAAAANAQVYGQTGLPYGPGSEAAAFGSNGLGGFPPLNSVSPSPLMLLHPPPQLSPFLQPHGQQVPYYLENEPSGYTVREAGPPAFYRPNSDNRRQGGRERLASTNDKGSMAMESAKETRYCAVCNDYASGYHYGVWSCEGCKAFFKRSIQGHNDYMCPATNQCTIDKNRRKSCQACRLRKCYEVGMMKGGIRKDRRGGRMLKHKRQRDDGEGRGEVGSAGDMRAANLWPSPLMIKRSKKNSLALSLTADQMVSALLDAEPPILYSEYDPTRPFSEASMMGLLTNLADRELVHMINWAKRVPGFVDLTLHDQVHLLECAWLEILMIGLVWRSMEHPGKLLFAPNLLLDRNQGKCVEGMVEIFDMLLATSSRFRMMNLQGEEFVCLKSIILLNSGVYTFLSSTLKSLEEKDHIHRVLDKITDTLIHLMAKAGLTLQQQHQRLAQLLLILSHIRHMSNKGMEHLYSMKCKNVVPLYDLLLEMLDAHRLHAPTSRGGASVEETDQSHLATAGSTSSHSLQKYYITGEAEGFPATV
# [5] = AUC (0 to t) in Sprague-Dawley rat at 10 mg/kg, po measured up to 24 hrs by LC/MS/MS analysis; assay type: ADME, organism-based; design: time < 24 hrs, dose 10 mg/kg, route po; conditions: in vivo
# MCF7 = assay: Anti-hyperplasia activity in […] Sprague-Dawley rat assessed as appearance of tall columnar phenotype in epithelial cells at 60 mg/kg, po once daily for 3 days by hematoxylin and eosin staining based assay; assay type: functional, organism-based; conditions: time 3.0 day
# [6] = Cmax in Sprague-Dawley rat at 5 mg/kg, po measured up to 24 hrs by LC/MS/MS analysis; assay type: ADME, organism-based; design: time < 24 hrs, dose 5 mg/kg, route po; conditions: in vivo
# [7] = AUC (0 to t) in Sprague-Dawley rat at 5 mg/kg, po measured up to 24 hrs by LC/MS/MS analysis; assay type: ADME, organism-based; design: time < 24 hrs, dose 5 mg/kg, route po; conditions: in vivo
# Chain of Estrogen receptor (Homo sapiens, UniProt P03372, D538G) (P03372 whole entry D538G): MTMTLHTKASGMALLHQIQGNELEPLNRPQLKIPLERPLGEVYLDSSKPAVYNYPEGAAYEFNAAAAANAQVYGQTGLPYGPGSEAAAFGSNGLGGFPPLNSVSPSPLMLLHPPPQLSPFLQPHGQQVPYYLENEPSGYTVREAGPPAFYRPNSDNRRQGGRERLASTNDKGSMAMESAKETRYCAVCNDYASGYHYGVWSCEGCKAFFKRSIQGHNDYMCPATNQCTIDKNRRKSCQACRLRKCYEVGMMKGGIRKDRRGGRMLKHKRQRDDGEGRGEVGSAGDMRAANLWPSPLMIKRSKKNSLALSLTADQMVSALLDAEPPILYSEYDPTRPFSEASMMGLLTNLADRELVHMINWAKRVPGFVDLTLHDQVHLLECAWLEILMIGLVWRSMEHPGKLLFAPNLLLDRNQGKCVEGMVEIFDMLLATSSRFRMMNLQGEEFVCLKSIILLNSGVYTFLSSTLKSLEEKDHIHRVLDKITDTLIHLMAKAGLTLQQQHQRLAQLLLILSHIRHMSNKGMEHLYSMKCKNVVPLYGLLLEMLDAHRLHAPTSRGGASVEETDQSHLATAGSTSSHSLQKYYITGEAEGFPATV
# Chain of Estrogen receptor (Homo sapiens, UniProt P03372, Y537S) (P03372 whole entry Y537S): as the sequence (P03372 whole entry D538G) above, with Y537S, G538D counted along it
smiles,measurement,setting,value
CC(F)(F)c1cc(Cl)ccc1-c1sc2c(ccc3[nH]ncc32)c1Oc1ccc(NC2CN(CCCF)C2)cc1,Cmax,[1],228 ng/mL
same,IC50,Estrogen receptor [2],16.6 nM
same,IC50,Estrogen receptor [3],13.1 nM
same,EC50,Estrogen receptor [4],1.2 nM
same,AUC(0-t) at 24 h,[5],3090 ng·h/mL
CC/C(=C(\c1ccc(O)cc1)c1ccc(OCCN(C)C)cc1)c1ccccc1,Activity,MCF7,Active
CC(F)(F)c1cc(-c2sc3cc(O)ccc3c2Oc2ccc(/C=C/C(=O)O)cc2)ccc1F,Cmax,[6],283 ng/mL
same,AUC(0-t) at 24 h,[7],585 ng·h/mL
